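Step 1: Grow cells in 96-well plates. Step 2: Expose to compound for 48 hours at 5 concentrations. Step 3: Interpolate endpoints linearly; if unreached, use highest concentration. Abbreviation: GI50, concentration required for 50% inhibition of growth.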 The source made the active and inactive calls. Cut-off read from the data, not from the text of the source: active = GI50 up to about 1.1 µM and inactive = higher.
Key:
Assay in all cases: NCI tumour cell line growth inhibition, 48 h
HT-29 = test system: HT-29
SK-MEL-5 = test system: SK-MEL-5
M19-MEL = test system: M19-MEL
UACC-62 = test system: UACC-62
OVCAR-4 = test system: OVCAR-4
ACHN = test system: ACHN
COLO 205 = test system: COLO 205
RPMI-8226 = test system: RPMI-8226
TK-10 = test system: TK-10
A549 = test system: A549
RXF 393 = test system: RXF 393
CCRF-CEM = test system: CCRF-CEM
KM-20L2 = test system: KM-20L2
SF-539 = test system: SF-539
RXF 631 = test system: RXF 631
SNB-19 = test system: SNB-19
U-251 = test system: U-251
M14 = test system: M14
SK-OV-3 = test system: SK-OV-3
HCT-15 = test system: HCT-15
HOP-18 = test system: HOP-18
SK-MEL-28 = test system: SK-MEL-28
HL-60 = test system: HL-60
NCI-H522 = test system: NCI-H522
OVCAR-8 = test system: OVCAR-8
Malme-3M = test system: Malme-3M
OVCAR-3 = test system: OVCAR-3
HCT-116 = test system: HCT-116
SNB-75 = test system: SNB-75
NCI-H460 = test system: NCI-H460
HOP-92 = test system: HOP-92
MOLT-4 = test system: MOLT-4
SW-620 = test system: SW-620
SK-MEL-2 = test system: SK-MEL-2
SN12C = test system: SN12C
CAKI-1 = test system: CAKI-1
NCI-H226 = test system: NCI-H226
NCI-H23 = test system: NCI-H23
XF498 = test system: XF498
OVCAR-5 = test system: OVCAR-5
HCC 2998 = test system: HCC 2998
DMS-114 = test system: DMS-114
HOP-62 = test system: HOP-62
SR = test system: SR
SF-295 = test system: SF-295
IGROV-1 = test system: IGROV-1
UACC-257 = test system: UACC-257
K562 = test system: K562
SF-268 = test system: SF-268
EKVX = test system: EKVX
LXFL 529 = test system: LXFL 529
SNB-78 = test system: SNB-78
UO-31 = test system: UO-31
A498 = test system: A498
LOX IMVI = test system: LOX IMVI
KM12 = test system: KM12
786-0 = test system: 786-0
DLD-1 = test system: DLD-1
DMS-273 = test system: DMS-273

COc1ccc(/N=C\c2ccc(N(CCC#N)S(=O)(=O)c3ccccc3)cc2C)cc1
GI50 (HT-29): 53.7 µM (inactive) | GI50 (SK-MEL-5): 51.1 µM (inactive) | GI50 (M19-MEL): 41.7 µM (inactive) | GI50 (UACC-62): 8.99 µM (inactive) | GI50 (OVCAR-4): 74.6 µM (inactive) | GI50 (ACHN): 15.6 µM (inactive) | GI50 (COLO 205): 27.2 µM (inactive) | GI50 (RPMI-8226): > 100 µM (inactive) | GI50 (TK-10): 22.9 µM (inactive) | GI50 (A549): 26.5 µM (inactive) | GI50 (RXF 393): > 100 µM (inactive) | GI50 (CCRF-CEM): 30.2 µM (inactive) | GI50 (KM-20L2): 12 µM (inactive) | GI50 (SF-539): 44.2 µM (inactive) | GI50 (RXF 631): 59.8 µM (inactive) | GI50 (SNB-19): > 100 µM (inactive) | GI50 (U-251): > 100 µM (inactive) | GI50 (M14): 14.6 µM (inactive) | GI50 (SK-OV-3): > 100 µM (inactive) | GI50 (HCT-15): 8.53 µM | GI50 (HOP-18): > 100 µM (inactive) | GI50 (SK-MEL-28): 39.9 µM (inactive) | GI50 (HL-60): 16.9 µM (inactive) | GI50 (NCI-H522): > 100 µM (inactive) | GI50 (OVCAR-8): > 100 µM (inactive) | GI50 (Malme-3M): 25.6 µM (inactive) | GI50 (OVCAR-3): 53.7 µM (inactive) | GI50 (HCT-116): 87.1 µM (inactive) | GI50 (SNB-75): > 100 µM (inactive) | GI50 (NCI-H460): 34.8 µM (inactive) | GI50 (HOP-92): > 100 µM (inactive) | GI50 (MOLT-4): 27.4 µM (inactive) | GI50 (SW-620): 59.8 µM (inactive) | GI50 (SK-MEL-2): 23.3 µM (inactive) | GI50 (SN12C): > 100 µM (inactive) | GI50 (CAKI-1): 35.5 µM (inactive) | GI50 (NCI-H226): > 100 µM (inactive) | GI50 (NCI-H23): 43 µM (inactive) | GI50 (XF498): > 100 µM (inactive) | GI50 (OVCAR-5): > 100 µM (inactive) | GI50 (HCC 2998): 32 µM (inactive) | GI50 (DMS-114): 13.2 µM (inactive) | GI50 (HOP-62): 25.1 µM (inactive) | GI50 (SR): 7.96 µM (inactive) | GI50 (SF-295): 63.2 µM (inactive) | GI50 (IGROV-1): 64.1 µM (inactive) | GI50 (UACC-257): 39.5 µM (inactive) | GI50 (K562): 11.1 µM (inactive) | GI50 (SF-268): 3.58 µM (inactive) | GI50 (EKVX): > 100 µM (inactive) | GI50 (LXFL 529): 8.99 µM (inactive) | GI50 (SNB-78): 79.1 µM (inactive) | GI50 (UO-31): 23.3 µM (inactive)

N#CC(C(=N/O)/C(=N\O)C(C#N)c1ccccc1)c1ccccc1 (stereo not given)
GI50 (HT-29): > 100 µM (inactive) | GI50 (SK-MEL-5): > 100 µM (inactive) | GI50 (A498): > 100 µM (inactive) | GI50 (M19-MEL): 99.1 µM (inactive) | GI50 (UACC-62): > 100 µM (inactive) | GI50 (OVCAR-4): > 100 µM (inactive) | GI50 (ACHN): > 100 µM (inactive) | GI50 (LOX IMVI): 87.3 µM (inactive) | GI50 (COLO 205): > 100 µM (inactive) | GI50 (RPMI-8226): > 100 µM (inactive) | GI50 (TK-10): > 100 µM (inactive) | GI50 (A549): > 100 µM (inactive) | GI50 (RXF 393): > 100 µM (inactive) | GI50 (CCRF-CEM): > 100 µM (inactive) | GI50 (KM-20L2): > 100 µM (inactive) | GI50 (SF-539): > 100 µM (inactive) | GI50 (RXF 631): > 100 µM (inactive) | GI50 (SNB-19): > 100 µM (inactive) | GI50 (U-251): > 100 µM (inactive) | GI50 (M14): > 100 µM (inactive) | GI50 (SK-OV-3): > 100 µM (inactive) | GI50 (HCT-15): > 100 µM | GI50 (HOP-18): > 100 µM (inactive) | GI50 (SK-MEL-28): > 100 µM (inactive) | GI50 (HL-60): > 100 µM (inactive) | GI50 (NCI-H522): > 100 µM (inactive) | GI50 (OVCAR-8): > 100 µM (inactive) | GI50 (Malme-3M): > 100 µM (inactive) | GI50 (KM12): > 100 µM (inactive) | GI50 (786-0): > 100 µM (inactive) | GI50 (OVCAR-3): > 100 µM (inactive) | GI50 (HCT-116): > 100 µM (inactive) | GI50 (SNB-75): > 100 µM (inactive) | GI50 (NCI-H460): > 100 µM (inactive) | GI50 (HOP-92): > 100 µM (inactive) | GI50 (MOLT-4): > 100 µM (inactive) | GI50 (SW-620): > 100 µM (inactive) | GI50 (SK-MEL-2): > 100 µM (inactive) | GI50 (SN12C): > 100 µM (inactive) | GI50 (DLD-1): > 100 µM (inactive) | GI50 (NCI-H226): > 100 µM (inactive) | GI50 (NCI-H23): > 100 µM (inactive) | GI50 (XF498): > 100 µM (inactive) | GI50 (OVCAR-5): > 100 µM (inactive) | GI50 (HCC 2998): > 100 µM (inactive) | GI50 (DMS-114): > 100 µM (inactive) | GI50 (HOP-62): > 100 µM (inactive) | GI50 (SF-295): > 100 µM (inactive) | GI50 (IGROV-1): > 100 µM (inactive) | GI50 (UACC-257): > 100 µM (inactive) | GI50 (K562): > 100 µM (inactive) | GI50 (SF-268): > 100 µM (inactive) | GI50 (EKVX): > 100 µM (inactive) | GI50 (LXFL 529): > 100 µM (inactive) | GI50 (SNB-78): > 100 µM (inactive) | GI50 (UO-31): > 100 µM (inactive)

C=C(C(=C)N1N=NC2C3CCC(C3)C21)N1N=NC2C3CCC(C3)C21 (stereo not given)
GI50 (HT-29): > 100 µM (inactive) | GI50 (SK-MEL-5): > 100 µM (inactive) | GI50 (M19-MEL): > 100 µM (inactive) | GI50 (UACC-62): > 100 µM (inactive) | GI50 (OVCAR-4): > 100 µM (inactive) | GI50 (ACHN): > 100 µM (inactive) | GI50 (LOX IMVI): 68.5 µM (inactive) | GI50 (COLO 205): > 100 µM (inactive) | GI50 (TK-10): > 100 µM (inactive) | GI50 (A549): > 100 µM (inactive) | GI50 (RXF 393): > 100 µM (inactive) | GI50 (CCRF-CEM): 24.9 µM (inactive) | GI50 (SF-539): > 100 µM (inactive) | GI50 (RXF 631): > 100 µM (inactive) | GI50 (SNB-19): > 100 µM (inactive) | GI50 (U-251): > 100 µM (inactive) | GI50 (M14): > 100 µM (inactive) | GI50 (HOP-18): > 100 µM (inactive) | GI50 (SK-MEL-28): > 100 µM (inactive) | GI50 (HL-60): 16.9 µM (inactive) | GI50 (NCI-H522): 66.5 µM (inactive) | GI50 (OVCAR-8): > 100 µM (inactive) | GI50 (Malme-3M): > 100 µM (inactive) | GI50 (KM12): > 100 µM (inactive) | GI50 (DMS-273): > 100 µM (inactive) | GI50 (786-0): > 100 µM (inactive) | GI50 (OVCAR-3): > 100 µM (inactive) | GI50 (HCT-116): > 100 µM (inactive) | GI50 (SNB-75): 55.1 µM (inactive) | GI50 (NCI-H460): > 100 µM (inactive) | GI50 (HOP-92): > 100 µM (inactive) | GI50 (MOLT-4): 41.1 µM (inactive) | GI50 (SW-620): > 100 µM (inactive) | GI50 (SN12C): > 100 µM (inactive) | GI50 (DLD-1): > 100 µM (inactive) | GI50 (CAKI-1): > 100 µM (inactive) | GI50 (NCI-H23): > 100 µM (inactive) | GI50 (XF498): > 100 µM (inactive) | GI50 (OVCAR-5): > 100 µM (inactive) | GI50 (HCC 2998): > 100 µM (inactive) | GI50 (DMS-114): > 100 µM (inactive) | GI50 (HOP-62): > 100 µM (inactive) | GI50 (SR): 38.7 µM (inactive) | GI50 (SF-295): > 100 µM (inactive) | GI50 (IGROV-1): > 100 µM (inactive) | GI50 (UACC-257): > 100 µM (inactive) | GI50 (K562): 65.2 µM (inactive) | GI50 (SF-268): > 100 µM (inactive) | GI50 (LXFL 529): > 100 µM (inactive) | GI50 (SNB-78): > 100 µM (inactive) | GI50 (UO-31): > 100 µM (inactive)
